Consider three molecules from patent US20200025762A1, “NON-TARGET SITE RESISTANCE” (UNIVERSITY OF NEWCASTLE UPON TYNE, priority 2017, published 2020).

For experiment [1], the system named is Fenoxaprop population (ROTH FEN OUT) of black-grass. Description: Cross resistance test of the Fenoxaprop selected line. Type of experiment: in vivo, Alopecurus myosuroides. As to conditions: full or ¾ field rate; FIG. 18; no evidence of TSR. The text has this: However, given that the two populations have no known relationship to the HS population, some of these differences could have arisen due to background genetic variation not linked to herbicide resistance. To test this, the inventors extended the proteomic comparison to two additional populations originating from the HS Rothamsted population that had undergone 5-7 years of experimentally controlled selection under a single herbicide regime, either Fenoxaprop or Pendimethalin (Supplementary Methods S1). These herbicides were used because whereas resistance to fenoxaprop can arise through both TSR- and NTSR-based mechanisms (Cocker et al., 1999), evolved tolerance to pendimethalin in black-grass is most commonly associated with enhanced detoxification (James et al., 1995). The inventors then tested these populations for cross-resistance to other herbicides at either full or ¾ field rate (Supplementary Methods S2). Despite being selected under exposure to a single herbicidal mode of action (inhibition of microtubule assembly), the Pendimethalin population was also resistant against several herbicides with ACCase mode of action (fenoxaprop, clodinafop, cycloxidim), but not ALS or cell division MOA (FIG. 18). PCR of the respective ACCases in the selected population (Marshall et al., 2013), confirmed that resistance was not due to TSR-related mechanisms. […]

For experiment [2], the system named is Pendimethalin population (ROTH PEND 14) of black-grass. Briefly: Cross resistance test of the Pendimethalin selected line. The class given is in vivo, Alopecurus myosuroides. The note with it: full or ¾ field rate; FIG. 18; not due to TSR (PCR of ACCases). From the text: However, given that the two populations have no known relationship to the HS population, some of these differences could have arisen due to background genetic variation not linked to herbicide resistance. To test this, the inventors extended the proteomic comparison to two additional populations originating from the HS Rothamsted population that had undergone 5-7 years of experimentally controlled selection under a single herbicide regime, either Fenoxaprop or Pendimethalin (Supplementary Methods S1). These herbicides were used because whereas resistance to fenoxaprop can arise through both TSR- and NTSR-based mechanisms (Cocker et al., 1999), evolved tolerance to pendimethalin in black-grass is most commonly associated with enhanced detoxification (James et al., 1995). The inventors then tested these populations for cross-resistance to other herbicides at either full or ¾ field rate (Supplementary Methods S2). Despite being selected under exposure to a single herbicidal mode of action (inhibition of microtubule assembly), the Pendimethalin population was also resistant against several herbicides with ACCase mode of action (fenoxaprop, clodinafop, cycloxidim), but not ALS or cell division MOA (FIG. 18). PCR of the respective ACCases in the selected population (Marshall et al., 2013), confirmed that resistance was not due to TSR-related mechanisms.
A black-grass population originating from Rothamsted Broadbalk experimental grounds (guaranteed herbicide free) was used as the standard Herbicide Susceptible (HS) population, collected in 2009. This was used as a standard control for two “real” NTSR populations originating from wheat field sites in Essex (Peldon) and Oxford and two experimental NTSR populations that had undergone directed selection to two types of herbicidal active ingredients (Fenoxaprop and Pendimethalin). Both experimental populations originated from the Rothamsted HS population in 2004. Further details on the selection regime to create the distinct Fenoxaprop and Pendimethalin resistant populations are provided in Supplementary Methods S1/S2. […]

Take `CC(Oc1ccc(Oc2nc3ccc(Cl)cc3o2)cc1)C(=O)O` (stereo not shown) [fenoxaprop]: the “herbicide resistance of the population selected with fenoxaprop” value in experiment [1] was “only resistant toward the selecting herbicide”. For the same molecule, the “herbicide resistance of the Pendimethalin population” value in experiment [2] is “resistant”.
Turning to `C#CCOC(=O)[C@@H](C)Oc1ccc(Oc2ncc(Cl)cc2F)cc1`, the “herbicide resistance of the Pendimethalin population” value in experiment [2] is “resistant”.
On to `CCCC(=NOCC)C1=C(O)CC(C2CCCSC2)CC1=O` (stereo not shown) [cycloxidim], for which the “herbicide resistance of the Pendimethalin population” value in experiment [2] is “resistant”.
